These results are taken from the supplement of paper PMC5412046.

Molecules are shown by their SMILES.

Experiment [1] relates to SB.msgc-1. In words: area under the dose-response curve of % viability (trapezoidal, 11 doses) (% viability x log10 concentration); higher = less cytotoxic. As to conditions: SB.msgc-1 (sporadic gastric cancer). In outline: (§1)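 After 48 h of compound exposure, viability of hereditary or sporadic patient-derived gastric cancer cells was measured by CellTiter-Glo luminescence. Compounds were added in DMSO at 11 threefold-diluted concentrations to 500 cells per 1536 well. Results are viability normalised to DMSO, either at the highest concentration or as trapezoidal area under the curve.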

Experiment [2] concerns SB.mhdgc-1. The experiment is described as above. The following applies: SB.mhdgc-1 (hereditary c.1380delA CDH1 gastric cancer). In outline: as §1
The subject of experiment [3] is SB.msgc-1. In words: viability at highest tested concentration (MAXR) relative to DMSO; higher = less cytotoxic. As to conditions: SB.msgc-1 (sporadic gastric cancer). The gist of the method:
as §1

The subject of experiment [4] is SB.mhdgc-1. The description is as above. The following applies: SB.mhdgc-1 (hereditary c.1380delA CDH1 gastric cancer). In outline: as §1

As for `CO[C@H]1C[C@@H]2CC[C@@H](C)[C@@](O)(O2)C(=O)C(=O)N2CCCC[C@H]2C(=O)O[C@H]([C@@H](C)C[C@@H]2CC[C@@H](O)[C@H](OC)C2)CC(=O)[C@H](C)/C=C(\C)[C@@H](O)[C@@H](OC)C(=O)[C@H](C)C[C@H](C)/C=C/C=C/C=C/1C` [Sirolimus] (top concentration 46.0829 µM), the “area under the dose-response curve” value in the experiment with SB.msgc-1 [1] came to 470; in the experiment with SB.mhdgc-1 [2] it was 370. Also, the viability in the experiment with SB.msgc-1 [3] came to 76.1%; with SB.mhdgc-1 [4], 67.2%.

On to `O=C(O)c1nn(Cc2ccc(Cl)cc2Cl)c2ccccc12` [Lonidamine] (top concentration 46.0829 µM), for which the entries for the “area under the dose-response curve” value in the experiment on SB.msgc-1 [1] and in the experiment on SB.mhdgc-1 [2] were 461 and 443, respectively. Also, the figures for the viability with SB.msgc-1 [3] and with SB.mhdgc-1 [4] were 82.3% and 87.9%, respectively.

As to `CC(C)(O)/C=C\C(=O)[C@](C)(O)[C@H]1[C@H](O)C[C@]2(C)[C@@H]3CC=C4[C@@H](C=C(O)C(=O)C4(C)C)[C@]3(C)C(=O)C[C@@]12C` [Cucurbitacin I] (top concentration 46.0829 µM), the figures for the “area under the dose-response curve” value with SB.msgc-1 [1] and in the experiment on SB.mhdgc-1 [2] were 325 and 214, respectively. Besides, the viability amounted to 2.43% in the experiment with SB.msgc-1 [3] and 2.26% in the experiment with SB.mhdgc-1 [4].

On to `Nc1ncnc2nc(-c3ccc(N4CCOCC4)nc3)cc(-c3cccc(Br)c3)c12` [ABT-702] (top concentration 46.0829 µM), for which the “area under the dose-response curve” value in the experiment with SB.msgc-1 [1] came out at 505; in the experiment on SB.mhdgc-1 [2], 596. Also, the viability with SB.msgc-1 [3] is 40.7%; with SB.mhdgc-1 [4], 52.2%.

Turning to `CCC(=O)O[C@@]1([C@H](C)C[C@H]2[C@@H]3C[C@H](F)\C4=C\C(=O)\C=C/[C@]4(C)[C@@]3(F)[C@@H](O)C[C@]12C)C(=O)SCF` [Fluticasone propionate] (top concentration 46.0829 µM), the “area under the dose-response curve” value with SB.msgc-1 [1] was found to be 541; in the experiment with SB.mhdgc-1 [2], 519. For the same compound, the viability was 41.4% with SB.msgc-1 [3] and 32.2% with SB.mhdgc-1 [4].

As for `C=C(c1ccc(C(=O)O)cc1)c1cc2c(cc1C)C(C)(C)CCC2(C)C` [Bexarotene] (top concentration 46.0829 µM), the “area under the dose-response curve” value is 457 with SB.msgc-1 [1] and 513 with SB.mhdgc-1 [2]. Besides, the values for the viability in the experiment with SB.msgc-1 [3] and in the experiment with SB.mhdgc-1 [4] were 68.6% and 108%, respectively.

Regarding `CC[C@@H](C)[C@H](NC(=O)[C@H](CC1CCCCC1)NC(=O)c1ccno1)C(=O)N1CCC2(CCc3ccccc32)CC1` [GB 83] (top concentration 46.0829 µM), the “area under the dose-response curve” value with SB.msgc-1 [1] turned out to be 351; with SB.mhdgc-1 [2] it was 430. The figures for the viability in the experiment on SB.msgc-1 [3] and in the experiment on SB.mhdgc-1 [4] were 33.4% and 40.9%, respectively.

Consider `NC/1=N/C(=O)C2=C(N1)[N](C=N2)[C@@H]3C[C@H](O)[C@@H](CO)C3=C` [Entecavir] (top concentration 46.0829 µM), for which the “area under the dose-response curve” value in the experiment on SB.msgc-1 [1] amounted to 494; with SB.mhdgc-1 [2], 512. Besides, the viability with SB.msgc-1 [3] turned out to be 58.3%; in the experiment with SB.mhdgc-1 [4], 40.3%.

For the compound `CCCCCC[C@H]1C(=O)O[C@H](C)[C@H](NC(=O)c2cccc(NC=O)c2O)C(=O)O[C@@H](C)[C@@H]1OC(=O)CC(C)C` [Antimycin A] (top concentration 46.0829 µM), the “area under the dose-response curve” value in the experiment on SB.msgc-1 [1] came out at 438; in the experiment with SB.mhdgc-1 [2], 486. For the same compound, the viability in the experiment on SB.msgc-1 [3] was 55.4%; with SB.mhdgc-1 [4], 70.6%.

Turning to `Nc1nc(Nc2ccc([S+](N)(=O)[O-])cc2)nn1C(=O)c1c(F)cccc1F` (top concentration 46.0829 µM), the “area under the dose-response curve” value with SB.msgc-1 [1] came out at 433; with SB.mhdgc-1 [2], 459. Further, the viability in the experiment with SB.msgc-1 [3] turned out to be 49.1%; with SB.mhdgc-1 [4] it was 63.7%.

As to `CC1(C)C(N(O)C(=O)Nc2ccc(Cl)cc2)N(c2ccc(Cl)cc2)C(=O)N1CC(=O)N/N=C/C=C/c1ccc([N+](=O)[O-])o1` (stereo not drawn) [Eeyarestatin I] (top concentration 46.0829 µM), the “area under the dose-response curve” value in the experiment on SB.msgc-1 [1] came to 459; in the experiment with SB.mhdgc-1 [2], 506. Further, the viability in the experiment on SB.msgc-1 [3] came to 1.63%; in the experiment with SB.mhdgc-1 [4] it was 1.97%.

Turning to `Cn1c(=O)c2[nH]cnc2n(C)c1=O` [Theophyllamine] (top concentration 46.0829 µM), the results for the “area under the dose-response curve” value with SB.msgc-1 [1] and in the experiment on SB.mhdgc-1 [2] were 614 and 560, respectively. Also, the viability in the experiment with SB.msgc-1 [3] turned out to be 123%; with SB.mhdgc-1 [4] it was 87.8%.

Take `OCc1ccccc1O[C@@H]1O[C@H](CO)[C@@H](O)[C@H](O)[C@H]1O` [Salicin] (top concentration 46.0829 µM): the “area under the dose-response curve” value worked out at 466 with SB.msgc-1 [1] and 509 in the experiment with SB.mhdgc-1 [2]. The viability with SB.msgc-1 [3] stood at 93.9%; in the experiment with SB.mhdgc-1 [4], 119%.

In the case of `COc1cc([C@@H]2c3cc4c(cc3[C@H](O)[C@H]3COC(=O)[C@H]23)OCO4)cc(OC)c1OC` [Picropodophyllin] (top concentration 46.0829 µM), the “area under the dose-response curve” value in the experiment with SB.msgc-1 [1] and in the experiment with SB.mhdgc-1 [2] was 246 in each case. The viability with SB.msgc-1 [3] came out at 38.6%; with SB.mhdgc-1 [4], 44.4%.

For `CCN1\C=C(C(O)=O)/C(=O)C2=C1C=C(N3CCN(C)CC3)C(=C2)F` [Pefloxacin] (top concentration 46.0829 µM), the “area under the dose-response curve” value with SB.msgc-1 [1] came to 617; in the experiment on SB.mhdgc-1 [2], 545. Also, the viability with SB.msgc-1 [3] worked out at 117%; in the experiment on SB.mhdgc-1 [4], 96.3%.

For `COc1cc(F)c(C(C)C)cc1-c1ccc(C(F)(F)F)cc1CN1C(=O)O[C@H](c2cc(C(F)(F)F)cc(C(F)(F)F)c2)[C@@H]1C` [Anacetrapib] (top concentration 46.0829 µM), the “area under the dose-response curve” value worked out at 478 in the experiment with SB.msgc-1 [1] and 470 in the experiment on SB.mhdgc-1 [2]. Also, the viability in the experiment with SB.msgc-1 [3] is 77.9%; in the experiment on SB.mhdgc-1 [4], 54.6%.

For `CC[C@@H]1C(=O)N(C)c2cnc(Nc3ccc(C(=O)NC4CCC(N5CCN(CC6CC6)CC5)CC4)cc3OC)nc2N1C(C)C` (stereo partly drawn) [Volasertib] (top concentration 46.0829 µM), the “area under the dose-response curve” value amounted to 345 with SB.msgc-1 [1] and 363 in the experiment with SB.mhdgc-1 [2]. The viability worked out at 16.2% in the experiment with SB.msgc-1 [3] and 3.26% in the experiment with SB.mhdgc-1 [4].
